Like-named read-outs stand apart in the source and are kept apart here.
What was measured:
Type in all cases: physicochemical
[1] = Stability in water/D2O buffered at different pH values, tracked by 1H NMR
Excerpt: The ^1H NMR spectra of NAC and the disulfide, trisulfide, and tetrasulfide of NAC had peaks at unique values for chemical shifts and allowed for their easy characterization (Figure 3). Pure chemicals of each sulfide were synthesized and characterized by ^1H and ^13C NMR spectroscopy as well as by high-resolution mass spectroscopy. The unique chemical shifts of the peaks for the Ha and Hb/Hc protons on the sulfides allowed the integration of each sulfide to be determined.
The stability of NAC trisulfide in water buffered at pH values of 5.8, 7.4, and 9.0 was measured.
The stability of cysteine trisulfide was investigated in buffered water at pH values of 5.8, 7.0, and 9.0. […] At pH values of 5.8, 7.0, and 9.0, the cysteine trisulfide was soluble and its ^1H NMR spectra were obtained.
The stability of glutathione trisulfide was investigated at pH values of 5.8, 7.4, and 9.0 (Figure S14a). The degradation of glutathione trisulfide was more rapid at pH values of 5.8 and 7.4 than that of the trisulfides of NAC and cysteine. At an acidic pH of 5.8, 71% of glutathione trisulfide degraded after 10 days. At pH values of 7.4 and 9.0, glutathione trisulfide degraded 79 and 81%, respectively, at day 9. […] The degradation of glutathione trisulfide reached an equilibrium of approximately 20% with the disulfide due to the reaction catalyzed by amine with elemental sulfur. Rate constants and half-lives were obtained for the degradation of glutathione trisulfide at each pH value using early data points unaffected by the equilibrium. At pH values of 5.8, 7.4, and 9.0, the estimated half-lives were 6.3 days (151 h), 0.90 days (21.6 h), and 0.79 days (19.0 h), respectively (Figure S14b).
The stability of NAC tetrasulfide was investigated in D2O buffered at pH values of 5.8, 7.4, and 9.0 (Figure S16a). At a pH of 5.8, NAC tetrasulfide degraded by 13% after 9 days. At pH values of 7.4 and 9.0, the tetrasulfide degraded by 55 and 52%, respectively, after 9 days. At each pH, the degradation product was NAC trisulfide, elemental sulfur, and a small amount of NAC disulfide (<3%). […] Estimated rate constants and half-lives for the degradation of NAC tetrasulfide at each pH were obtained. At pH values of 5.8, 7.4, and 9.0, the estimated half-lives were 53.3, 7.5, and 8.2 days, respectively (Figure S16b).

[2] = Stability in D2O in the presence of butylamine or triethylamine, tracked by 1H NMR
Experimental: N-Acetylcysteine trisulfide (26.5 mg, 66 μmol) was dissolved in 600 μL of D2O. Butylamine (5.0 mg, 68 μmol) was added, and the ^1H NMR spectra were taken periodically to track degradation.
N-Acetylcysteine trisulfide (26.5 mg, 66 μmol) was dissolved in 600 μL of D2O. Triethylamine (8.0 mg, 79 μmol) was added, and the ^1H NMR spectra were taken periodically to track degradation.
Cysteine trisulfide (5.5 mg, 20 μmol) was added to 600 μL of D2O. The solution was filtered to remove undissolved particles. […] The ^1H NMR spectra were taken periodically to track degradation.
Cysteine trisulfide (4.3 mg, 16 μmol) was added to 600 μL of D2O. The solution was filtered to remove undissolved particles. […] The ^1H NMR spectra were taken periodically to track degradation.
N-Acetylcysteine tetrasulfide (17.2 mg, 44 μmol) was dissolved in 600 μL of D2O. Butylamine (9.9 mg, 135 μmol) was added, and the ^1H NMR spectra were taken periodically to track degradation.
N-Acetylcysteine tetrasulfide (17.2 mg, 44 μmol) was dissolved in 600 μL of D2O. Triethylamine (13.5 mg, 135 μmol) was added, and the ^1H NMR spectra were taken periodically to track degradation.

[3] = Degradation in the presence of butylamine under biologically relevant conditions (37 °C, pH 7.4); details: pH 7.4 D2O; for degraded: 10 mM
Experimental: To investigate how amines degrade polysulfides in the body, NAC trisulfide was dissolved in pH 7.4 in D2O at a concentration of 10 mM. […] Butylamine was added and the reaction was maintained at body temperature (37 °C). Degradation was tracked using ^1H NMR spectroscopy (Figure 8).
N-Acetylcysteine trisulfide (14.4 mg, 36 μmol) was dissolved in 3.6 mL of D2O buffered to pH 7.4. Butylamine (11 μL, 110 μmol) was added and the contents were heated to 37 °C. The ^1H NMR spectra were taken periodically to track degradation.

[4] = Equilibrium between di-, tri- and tetrasulfides in the presence of elemental sulfur (1H NMR); details: water with elemental sulfur, 40 °C, after 15 days, no amine
Experimental: To test this hypothesis, a reaction was completed in D2O with elemental sulfur, NAC disulfide, and butylamine.
To understand why the degradation leveled off, NAC trisulfide was dissolved in water, elemental sulfur was added, and the contents were heated to 40 °C.
N-Acetylcysteine disulfide (9.3 mg, 23 μmol) was dissolved in 600 μL of D2O. Elemental sulfur (6.8 mg, 0.21 mmol) and butylamine (18.5 mg, 0.25 mmol) were added, and the ^1H NMR spectra were periodically obtained to track the equilibrium.

Compound: CC(=O)N[C@@H](CSSSC[C@H](NC(C)=O)C(=O)O)C(=O)O [NAC trisulfide, N-Acetylcysteine Trisulfide]
- stability ([1]; all pH values tested (abstract)): stable
- degradation ([1]; water buffered at pH 5.8, 7.4 and 9.0, after 8 days): no observable degradation
- degraded ([2]; 1 equiv butylamine, D2O, after 1 h): 43%
- degraded ([2]; 1 equiv butylamine, D2O, after 24 h): 92%
- degraded ([2]; 1 equiv triethylamine, D2O, after 1 h): 14%
- degraded ([2]; 1 equiv triethylamine, D2O, after 24 h): 87%
- half-life ([2]; D2O with butylamine, in the presence of butylamine (abstract), read-out: half-life): 53 min
- half-life ([2]; D2O with butylamine, in the presence of butylamine, D2O, early data points, read-out: estimated half-life of degradation (converted)): 56.4 min
- half-life ([2]; D2O with triethylamine, in the presence of triethylamine, D2O, early data points, read-out: estimated half-life of degradation (converted)): 132 min
- time to reach equilibrium ([2]; addition of butylamine or triethylamine): less than 5 h
- tetrasulfide observed as product ([2]; both reactions (butylamine, triethylamine), D2O): < 3%
- degraded ([3]; after 1 h): 45%
- degraded ([3]; after 2 h): 81%
- degraded ([3]; after 1 day): 81%
- half-life at 10 mM ([3]; D2O buffered to pH 7.4 with butylamine, early data points, read-out: estimated half-life (converted)): 46.2 min
- disulfide formed [4]: 12%
- tetrasulfide formed [4]: 11%
